In US20250145665A1, “MACROCYCLIC PEPTIDES USEFUL AS MODULATORS OF TNF ALPHA” (Bristol-Myers Squibb Company, priority 2023, published 2025):
Starred links: 1 amine or outer side, 2 acyl side, 3 side chain; linkers in the order of their positions; H or OH if unused. Positions of bridges follow the written chain, without caps; N, C: chain ends. Non-standard residues stand in square brackets, D forms with d. Residues, ends and D or L forms follow the SMILES beside them. ξ: configuration not given here. *: point of attachment. X5 = Cn1nc(C(=O)Nc2ccc(-c3ccc(C[C@H](N[*:1])C(=O)[*:2])cc3)cc2)c2ccccc21; dArg(ω-(2S)-2,3-diOHpropyl) = N=C(NCCC[C@@H](N)C(=O)O)NC[C@H](O)CO; Bip(4'-NH) = O=C([C@H](Cc1ccc(-c2ccc(N[*:3])cc2)cc1)N[*:1])[*:2]; Indazole3carbonyl(1-CH2COOH) = O=C(O)Cn1nc(C(=O)*)c2ccccc21; X54 = N=C(NCCC[C@@H](N[*:1])C(=O)[*:2])NCc1cccc(-n2ccnc2)c1; Bip(4'-COOH) = N[C@@H](Cc1ccc(-c2ccc(C(=O)O)cc2)cc1)C(=O)O; Bip(4'-NHAc) = CC(=O)Nc1ccc(-c2ccc(C[C@H](N)C(=O)O)cc2)cc1; X19 = N=C(NCCC[C@@H](N[*:1])C(=O)[*:2])NCc1ccc2ccccc2c1; X66 = N=C(NCCC[C@@H](N[*:1])C(=O)[*:2])NCc1ccc(F)c(F)c1; Ala(imidazol-2-yl) = N[C@@H](Cc1ncc[nH]1)C(=O)O; dArg(ω-Bn) = N=C(NCCC[C@@H](N)C(=O)O)NCc1ccccc1; Ala(morpholin-4-yl) = N[C@@H](CN1CCOCC1)C(=O)O; Bip = N[C@@H](Cc1ccc(-c2ccccc2)cc1)C(=O)O; 2Pal = N[C@@H](Cc1ccccn1)C(=O)O; 2Thi = N[C@@H](Cc1cccs1)C(=O)O; Cha = N[C@@H](CC1CCCCC1)C(=O)O; Chg = N[C@H](C(=O)O)C1CCCCC1; ξAze = O=C(O)C1CCN1; Sar = CNCC(=O)O

target: TNFα (Homo sapiens, UniProt P01375); experiment: TNF-Induced HEK-Blue Assay; format: cell-based; conditions: not given
Sequence (P01375 77-233 limits assumed): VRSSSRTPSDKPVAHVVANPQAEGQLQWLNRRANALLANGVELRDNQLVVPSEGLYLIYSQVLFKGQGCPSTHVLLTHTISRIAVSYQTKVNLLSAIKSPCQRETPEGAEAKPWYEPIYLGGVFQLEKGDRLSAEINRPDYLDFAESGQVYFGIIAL

**Q.** With `CC(C)C[C@@H]1NC(=O)[C@H](CCCNC(=N)N)NC(=O)[C@H](C(C)C)NC(=O)[C@@H]2CCCN2C(=O)[C@H](C(C)C)NC(=O)[C@@H](CCCNC(=N)NCc2ccccc2)NC(=O)[C@H](CC(=O)O)NC(=O)[C@@H]2CCCN2C(=O)CN(C)C(=O)[C@H](Cc2ccc(-c3ccc(NC(=O)c4nn(CC(=O)O)c5ccccc45)cc3)cc2)NC(=O)[C@H](Cc2ccc(-c3ccccc3)cc2)NC(=O)[C@H](CN2CCOCC2)NC(=O)CSC[C@@H](C(=O)NCC(N)=O)NC1=O` [Example 467] ({CH2CO}-[Ala(morpholin-4-yl)][Bip][Bip(4'-NH)](Indazole3carbonyl(1-CH2COOH))[Sar]PD[dArg(ω-Bn)]VPVRLCG-NH2; thioether N-13) as the molecule, how does the IC50 read?
**A.** < 50 nM

**Q.** `CC(C)C[C@@H]1NC(=O)[C@H](CCCNC(=N)N)NC(=O)[C@H](C(C)C)NC(=O)[C@@H]2CCCN2C(=O)[C@H](C(C)C)NC(=O)[C@@H](CCCNC(=N)NCc2ccc3ccccc3c2)NC(=O)[C@H](CC(=O)O)NC(=O)[C@@H]2CCCN2C(=O)CN(C)C(=O)[C@H](Cc2ccc(-c3ccc(NC(=O)c4nn(CC(=O)O)c5ccccc45)cc3)cc2)NC(=O)[C@H](Cc2ccc(-c3ccccc3)cc2)NC(=O)[C@H](CN2CCOCC2)NC(=O)CSC[C@@H](C(=O)NCC(N)=O)NC1=O` [Example 468] ({CH2CO}-[Ala(morpholin-4-yl)][Bip][Bip(4'-NH)](Indazole3carbonyl(1-CH2COOH))[Sar]PD[X19]VPVRLCG-NH2; thioether N-13) was tested. Which IC50 did it give?
**A.** < 50 nM

**Q.** How did the IC50 turn out when `CC(C)C[C@@H]1NC(=O)[C@H](CCCNC(=N)N)NC(=O)[C@H](C(C)C)NC(=O)[C@@H]2CCCN2C(=O)[C@H](C(C)C)NC(=O)[C@@H](CCCNC(=N)NCc2ccc(F)c(F)c2)NC(=O)[C@H](CC(=O)O)NC(=O)[C@@H]2CCCN2C(=O)CN(C)C(=O)[C@H](Cc2ccc(-c3ccc(NC(=O)c4nn(CC(=O)O)c5ccccc45)cc3)cc2)NC(=O)[C@H](Cc2ccc(-c3ccccc3)cc2)NC(=O)[C@H](CN2CCOCC2)NC(=O)CSC[C@@H](C(=O)NCC(N)=O)NC1=O` [Example 469] ({CH2CO}-[Ala(morpholin-4-yl)][Bip][Bip(4'-NH)](Indazole3carbonyl(1-CH2COOH))[Sar]PD[X66]VPVRLCG-NH2; thioether N-13) was run?
**A.** < 50 nM

**Q.** `CC(C)C[C@@H]1NC(=O)[C@H](CCCNC(=N)N)NC(=O)[C@H](C(C)C)NC(=O)[C@@H]2CCCN2C(=O)[C@H](C(C)C)NC(=O)[C@@H](CCCNC(=N)NCc2cccc(-n3ccnc3)c2)NC(=O)[C@H](CC(=O)O)NC(=O)[C@@H]2CCCN2C(=O)CN(C)C(=O)[C@H](Cc2ccc(-c3ccc(NC(=O)c4nn(CC(=O)O)c5ccccc45)cc3)cc2)NC(=O)[C@H](Cc2ccc(-c3ccccc3)cc2)NC(=O)[C@H](CN2CCOCC2)NC(=O)CSC[C@@H](C(=O)NCC(N)=O)NC1=O` [Example 470] ({CH2CO}-[Ala(morpholin-4-yl)][Bip][Bip(4'-NH)](Indazole3carbonyl(1-CH2COOH))[Sar]PD[X54]VPVRLCG-NH2; thioether N-13) was tested. Which IC50 did it give?
**A.** < 50 nM

**Q.** Which IC50 does the source give for `CC(C)C[C@@H]1NC(=O)[C@H](CCCNC(=N)N)NC(=O)[C@H](C(C)C)NC(=O)[C@@H]2CCCN2C(=O)[C@H](C(C)C)NC(=O)[C@@H](CCCNC(=N)NC[C@H](O)CO)NC(=O)[C@H](CC(=O)O)NC(=O)[C@@H]2CCCN2C(=O)CN(C)C(=O)[C@H](Cc2ccc(-c3ccc(NC(=O)c4nn(CC(=O)O)c5ccccc45)cc3)cc2)NC(=O)[C@H](Cc2ccc(-c3ccccc3)cc2)NC(=O)[C@H](CN2CCOCC2)NC(=O)CSC[C@@H](C(=O)NCC(N)=O)NC1=O` [Example 475] ({CH2CO}-[Ala(morpholin-4-yl)][Bip][Bip(4'-NH)](Indazole3carbonyl(1-CH2COOH))[Sar]PD[dArg(ω-(2S)-2,3-diOHpropyl)]VPVRLCG-NH2; thioether N-13) here?
**A.** < 50 nM

same assay, conditions: HEK-Blue-CD40L cells, NF-kB-driven secreted alkaline phosphatase reporter; TNFα 0.5 ng/ml; 18 h; read-out: TNF induced HEK-Blue assay IC50 value

**Q.** Which IC50 does the source give for `CC(=O)Nc1ccc(-c2ccc(C[C@@H]3NC(=O)[C@H](Cc4ccc(-c5ccccc5)cc4)NC(=O)[C@H](CN4CCOCC4)NC(=O)CSC[C@@H](C(=O)NCC(N)=O)NC(=O)[C@H](CC(C)C)NC(=O)[C@H](Cc4ncc[nH]4)NC(=O)[C@H](C(C)C)NC(=O)[C@@H]4CCCN4C(=O)[C@H](C(C)C)NC(=O)[C@@H](CCCNC(=N)N)NC(=O)[C@H](CC(=O)O)NC(=O)[C@H](Cc4cccs4)NC(=O)CN(C)C3=O)cc2)cc1` [Example 461] ({CH2CO}-[Ala(morpholin-4-yl)][Bip][Bip(4'-NHAc)][Sar][2Thi]D[dR]VPV[Ala(imidazol-2-yl)]LCG-NH2; thioether N-13) here?
**A.** < 50 nM

**Q.** With `CC(=O)Nc1ccc(-c2ccc(C[C@@H]3NC(=O)[C@H](Cc4ccc(-c5ccc(C(=O)O)cc5)cc4)NC(=O)[C@H](CN4CCOCC4)NC(=O)CSC[C@@H](C(=O)NCC(N)=O)NC(=O)[C@H](CC(C)C)NC(=O)[C@H](Cc4ncc[nH]4)NC(=O)[C@H](C(C)C)NC(=O)[C@@H]4CCCN4C(=O)[C@H](C(C)C)NC(=O)[C@@H](CCCNC(=N)N)NC(=O)[C@H](CC(=O)O)NC(=O)[C@H](Cc4cccs4)NC(=O)CN(C)C3=O)cc2)cc1` [Example 462] ({CH2CO}-[Ala(morpholin-4-yl)][Bip(4'-COOH)][Bip(4'-NHAc)][Sar][2Thi]D[dR]VPV[Ala(imidazol-2-yl)]LCG-NH2; thioether N-13) as the molecule, how does the IC50 read?
**A.** < 50 nM

**Q.** For `CC(=O)Nc1ccc(-c2ccc(C[C@@H]3NC(=O)[C@H](Cc4ccc(-c5ccccc5)cc4)NC(=O)[C@H](CN4CCOCC4)NC(=O)CSC[C@@H](C(=O)NCC(N)=O)NC(=O)[C@H](CC(C)C)NC(=O)[C@H](Cc4ncc[nH]4)NC(=O)[C@H](C4CCCCC4)NC(=O)[C@@H]4CCCN4C(=O)[C@H](C(C)C)NC(=O)[C@@H](CCCNC(=N)N)NC(=O)[C@H](CC(=O)O)NC(=O)[C@H](Cc4cccs4)NC(=O)CN(C)C3=O)cc2)cc1` [Example 463] ({CH2CO}-[Ala(morpholin-4-yl)][Bip][Bip(4'-NHAc)][Sar][2Thi]D[dR]VP[Chg][Ala(imidazol-2-yl)]LCG-NH2; thioether N-13), which IC50 is on record?
**A.** 50 to 200 nM

**Q.** Which IC50 does the source give for `CC[C@H](C)[C@@H]1NC(=O)[C@@H]2CCCN2C(=O)[C@H](C(C)C)NC(=O)[C@@H](CCCNC(=N)N)NC(=O)[C@H](CC(=O)O)NC(=O)[C@H](Cc2ccccn2)NC(=O)CN(C)C(=O)[C@H](Cc2ccc(-c3ccc(NC(C)=O)cc3)cc2)NC(=O)[C@H](Cc2ccc(-c3ccccc3)cc2)NC(=O)[C@H](CN2CCOCC2)NC(=O)CSC[C@@H](C(=O)NCC(N)=O)NC(=O)[C@H](CC(C)C)NC(=O)[C@H](Cc2ncc[nH]2)NC1=O` [Example 464] ({CH2CO}-[Ala(morpholin-4-yl)][Bip][Bip(4'-NHAc)][Sar][2Pal]D[dR]VPI[Ala(imidazol-2-yl)]LCG-NH2; thioether N-13) here?
**A.** < 50 nM

**Q.** How did the IC50 turn out when `CC(=O)Nc1ccc(-c2ccc(C[C@@H]3NC(=O)[C@H](Cc4ccc(-c5ccccc5)cc4)NC(=O)[C@H](CC4CCCCC4)NC(=O)CSC[C@@H](C(=O)NCC(N)=O)NC(=O)[C@H](CC(C)C)NC(=O)[C@H](Cc4ncc[nH]4)NC(=O)[C@H](C(C)C)NC(=O)C4CCN4C(=O)[C@H](C(C)C)NC(=O)[C@@H](CCCNC(=N)N)NC(=O)[C@H](CC(=O)O)NC(=O)[C@@H]4CCCN4C(=O)CN(C)C3=O)cc2)cc1` (some centres unmarked) [Example 466] ({CH2CO}-[Cha][Bip][Bip(4'-NHAc)][Sar]PD[dR]V[ξAze]V[Ala(imidazol-2-yl)]LCG-NH2; thioether N-13) was run?
**A.** < 50 nM

**Q.** How did the IC50 turn out when `CC(C)C[C@@H]1NC(=O)[C@H](CCCNC(=N)N)NC(=O)[C@H](C(C)C)NC(=O)[C@@H]2CCCN2C(=O)[C@H](C(C)C)NC(=O)[C@@H](CCCNC(=N)NCc2ccccc2)NC(=O)[C@H](CC(=O)O)NC(=O)[C@@H]2CCCN2C(=O)CN(C)C(=O)[C@H](Cc2ccc(-c3ccc(NC(=O)c4nn(C)c5ccccc45)cc3)cc2)NC(=O)[C@H](Cc2ccc(-c3ccccc3)cc2)NC(=O)[C@H](CN2CCOCC2)NC(=O)CSC[C@@H](C(=O)NCC(N)=O)NC1=O` [Example 471] ({CH2CO}-[Ala(morpholin-4-yl)][Bip][X5][Sar]PD[dArg(ω-Bn)]VPVRLCG-NH2; thioether N-13) was run?
**A.** < 50 nM

**Q.** `CC(C)C[C@@H]1NC(=O)[C@H](CCCNC(=N)N)NC(=O)[C@H](C(C)C)NC(=O)[C@@H]2CCCN2C(=O)[C@H](C(C)C)NC(=O)[C@@H](CCCNC(=N)NCc2ccc3ccccc3c2)NC(=O)[C@H](CC(=O)O)NC(=O)[C@@H]2CCCN2C(=O)CN(C)C(=O)[C@H](Cc2ccc(-c3ccc(NC(=O)c4nn(C)c5ccccc45)cc3)cc2)NC(=O)[C@H](Cc2ccc(-c3ccccc3)cc2)NC(=O)[C@H](CN2CCOCC2)NC(=O)CSC[C@@H](C(=O)NCC(N)=O)NC1=O` [Example 472] ({CH2CO}-[Ala(morpholin-4-yl)][Bip][X5][Sar]PD[X19]VPVRLCG-NH2; thioether N-13) was tested. Which IC50 did it give?
**A.** 50 to 200 nM

**Q.** Which IC50 does the source give for `CC(C)C[C@@H]1NC(=O)[C@H](CCCNC(=N)N)NC(=O)[C@H](C(C)C)NC(=O)[C@@H]2CCCN2C(=O)[C@H](C(C)C)NC(=O)[C@@H](CCCNC(=N)NCc2ccc(F)c(F)c2)NC(=O)[C@H](CC(=O)O)NC(=O)[C@@H]2CCCN2C(=O)CN(C)C(=O)[C@H](Cc2ccc(-c3ccc(NC(=O)c4nn(C)c5ccccc45)cc3)cc2)NC(=O)[C@H](Cc2ccc(-c3ccccc3)cc2)NC(=O)[C@H](CN2CCOCC2)NC(=O)CSC[C@@H](C(=O)NCC(N)=O)NC1=O` [Example 473] ({CH2CO}-[Ala(morpholin-4-yl)][Bip][X5][Sar]PD[X66]VPVRLCG-NH2; thioether N-13) here?
**A.** < 50 nM

**Q.** `CC(C)C[C@@H]1NC(=O)[C@H](CCCNC(=N)N)NC(=O)[C@H](C(C)C)NC(=O)[C@@H]2CCCN2C(=O)[C@H](C(C)C)NC(=O)[C@@H](CCCNC(=N)NCc2cccc(-n3ccnc3)c2)NC(=O)[C@H](CC(=O)O)NC(=O)[C@@H]2CCCN2C(=O)CN(C)C(=O)[C@H](Cc2ccc(-c3ccc(NC(=O)c4nn(C)c5ccccc45)cc3)cc2)NC(=O)[C@H](Cc2ccc(-c3ccccc3)cc2)NC(=O)[C@H](CN2CCOCC2)NC(=O)CSC[C@@H](C(=O)NCC(N)=O)NC1=O` [Example 474] ({CH2CO}-[Ala(morpholin-4-yl)][Bip][X5][Sar]PD[X54]VPVRLCG-NH2; thioether N-13) was tested. Which IC50 did it give?
**A.** 50 to 200 nM
